Values of other authors as cited in patent US7884136B2, “Modified-release formulations of a bupropion salt” (Biovail Laboratories International S.R.L., priority 2005, dated 2011).

Conditions: Mono- and Diglyceride Surfactants; cited from earlier work
For `CCCCCCCCCCCCCCCC(=O)OCC(O)CO` (centres unmarked) [Glycerol monopalmitate], the HLB is given as 4.
In the case of `CCCCCCCC/C=C\CCCCCCCC(=O)OCC(O)CO` (centres unmarked) [Glyceryl monooleate], the HLB is listed as 3-4.
In the case of Distearin, the HLB is given as <10.

Same assay, conditions: PEG Glycerol Fatty Acid Esters; cited from earlier work
For PEG-30 glyceryl oleate, the HLB is listed as >10.

Same assay, conditions: PEG-Fatty Acid Diester Surfactants; cited from earlier work
For PEG-6 dioleate, the HLB is given as 7.2.
In the case of PEG-12 dioleate, the HLB is given as 10.
For PEG-6 dilaurate, the HLB is listed as 9.8.
For PEG-12 distearate, the HLB is given as 10.7.
In the case of PEG-10 dipalmitate, the HLB is listed as >10.
In the case of PEG-4 dilaurate, the HLB is given as 6.
In the case of PEG-12 dilaurate, the HLB is given as 11.7.

Same assay, conditions: PEG-Fatty Acid Monoester Surfactants; cited from earlier work
In the case of PEG-2 stearate, the HLB is listed as 4.
For PEG 400 distearate, the HLB is listed as >10.
In the case of PEG-9 stearate, the HLB is given as >10.
